The values below come from publication PMC8813803 (Clinical Pharmacokinetics, 2021).

The conditions of data set [1]: in words; cited from earlier work.
For data set [2] the following is noted: in words; cited from earlier work. This is another data set of the same source.
For data set [3] the following is noted: in words; cited from earlier work. The source holds these as a separate data set.
The conditions of data set [4]: human, cited from earlier work.
Data set [5] can be described thus: Clinical ADME study NCT03315559. The data set is classed as in vivo. The note with it: human; set from Fg 0.83 of clinical study 206764.
Data set [6] concerns liver uptake transporters. The data set is described as follows: Liver uptake transporter substrate status. The class given is in vitro ADME.

On to `CC(C)N1CCN(Cc2cnc(-c3cc(-c4cccc5[nH]ccc45)cc4[nH]ncc34)o2)CC1` [nemiralisib, Nemiralisib], for which, in data set [1], the “Rat lung tissue binding” value is given as “high”. In addition, in data set [2], the Solubility result is given as “reasonable”. The Permeability entry in data set [3] is given as “high”. The “Fg (fraction escaping gut wall metabolism)” value in data set [4] (clinical study 206764 (NCT03315559)) is on record as 0.83. The “Volume of distribution at steady state” value in data set [4] (intravenous dosing) is on record as “approximately 10 L/kg”. The “tmax (time of maximum plasma concentration)” value in data set [4] (oral dose) is 6 h. Moreover, the Oral bioavailability in data set [4] is 35%. Further, the “Intestinal FPE (first-pass extraction)” value in data set [5] is 17%. In data set [6], the “Substrate of liver uptake transporters” value is recorded as “not a substrate”.
